Experimental data taken from US12226426B2, “Combination therapy” (IMPERIAL COLLEGE INNOVATIONS LIMITED, priority 2018, dated 2025).

Assays:
WT E. coli = test: Alkylating-agent sensitivity assay (colony forming units); settings: MMS 20 mM, 30 minutes at 37° C., FIG. 1
alkB mutants = settings: MMS 20 mM, alkB mutants compared with WT, FIG. 1

COS(C)(=O)=O [MMS, Methyl methanesulfonate]
effect on bacterial growth (CFU) (WT E. coli): minimal effect on bacterial growth
Sensitivity to MMS (CFU) (alkB mutants): significantly increased
